Absorbance and Turbidity data for three compounds are collected here from US20250129009A1, “Compound and Method for Identifying Impurities Included Therein” (LG CHEM, LTD., priority 2022, published 2025).

A short description of this series: Measurement of turbidity by UV/Vis spectroscopy (Method 1). Format: physicochemical. The following applies: 20 wt % aqueous solution; for Absorbance: light at 290 nm, 1 mm cuvette, DI water reference. As to the method:
A 20 wt % aqueous solution of the compound is analyzed by UV/Vis spectroscopy to measure the absorbance Abs to light at a wavelength of 290 nm, and the turbidity Tb is derived from the measured absorbance Abs by the following Equation 1.
A 20 wt % aqueous solution of the compound is analyzed by UV/Vis spectroscopy to measure the absorbance Abs to light at a wavelength of 290 nm, and a turbidity Tb is derived from the measured absorbance Abs by the following Equation 1.
The absorbance of light at a wavelength of 290 nm is confirmed by analyzing 5 types of turbidity standard solutions (0, 1, 10, 100, and 1000 NTU, respectively) by UV/Vis spectroscopy (using Agilent 8453, 200 to 1100 nm, resolution 2 nm, 1 mm cuvette). In this case, an empty cuvette cell is used as a reference for measurement. A calibration curve (Equation 1) is derived from the absorbance according to the 0 NTU to 1,000 NTU interval. (NTU: Nephelometric Turbidity Unit, water quality standard 1 NTU)
UV/Vis was measured for Samples 1 to 7 prepared in Preparation Example B above using Method 1 of the present disclosure, and the results are illustrated in FIG. 1. Further, values obtained by converting the measured absorbance (Abs) into turbidity using the following Equation 1 are shown in the following Table 1.
500 mg of each of Samples 1 to 7 were put into a vial, a 20 wt % aqueous solution was prepared using distilled water (DI water), and then UV/Vis spectroscopy (using Agilent 8453, 200 to 1100 nm, resolution 2 nm, 1 mm cuvette) was analyzed to confirm the absorbance of light at a wavelength of 290 nm. In this case, DI water was used as a reference for measurement.
The absorbance of light at a wavelength of 290 nm was confirmed by analyzing 5 types of turbidity standard solutions (0, 1, 10, 100, and 1000 NTU, respectively) by UV/Vis spectroscopy (using Agilent 8453, 200 to 1100 nm, resolution 2 nm, 1 mm cuvette). In this case, an empty cuvette cell was used as a reference for measurement.
A calibration curve (Equation 1) was derived from the absorbance according to the 0 NTU to 1,000 NTU interval. (NTU: Nephelometric Turbidity Unit, water quality standard 1 NTU)
Turbidity was derived by introducing the absorbance of Samples 1 to 7 confirmed in 1) above into Equation 1.

As for `C=CC(=O)OCC[N+](CCCC)(CCCC)CCCCCCCCCCCC` [Sample 3], the Absorbance is 0.3459.
`C=CC(=O)OCC[N+](CCCC)(CCCC)CCCCCCCCCCCC` [Sample 2]: the Absorbance is given as 0.1615.
With `C=CC(=O)OCC[N+](CCCC)(CCCC)CCCCCCCCCCCC` [Sample 5], the Absorbance came to 0.2796. This compound also yielded a Turbidity (converted from absorbance at 290 nm by Equation 1 (calibration 0 to 1,000 NTU standards)) of 74.
